Source: patent US20230085307A1, “PYRIDAZINONE COMPOUND AND HERBICIDE” (NISSAN CHEMICAL CORPORATION, priority 2019, published 2023)

Experiments:
rapeseed [1] = assay: Test Example 4: effect on crop by soil treatment (Table 19, symbol g); type: in vivo; settings: 320 g/ha
Excerpt: (§1) [Test Example 4] Herbicidal Effect Test by Soil Treatment
(§2) Sterilized diluvial soil was placed in a plastic box having a length of 21 cm, a width of 13 cm, and a depth of 7 cm. The seeds of each of southern crabgrass, green foxtail, barnyard grass, wild oat, blackgrass, Italian ryegrass, windgrass, velvetleaf, redroot pigweed, lambsquarters, chickweed, false cleavers, persian speedwell, corn, soybean, rice, wheat, beet, and rapeseed were sowed in a spot-like manner and covered with the soil having a thickness of about 1.5 cm. Subsequently, the emulsion agent of the compound of the present invention prepared according to Formulation Example 2 was diluted with water so as to achieve a predetermined herbicide amount, and the diluted emulsion agent was uniformly applied to the surface of the soil with a small-sized spray. The plastic box was placed in a greenhouse at 25° C. to 30° C. for growth of the plants. Three weeks after the herbicide application, the effect of the herbicide on each plant was evaluated according to the criteria of Test Example 1.

redroot pigweed = assay: Test Example 4: herbicidal effect by soil treatment (Table 19, symbol N); type: in vivo, redroot pigweed (Amaranthus retroflexus); settings: 320 g/ha
Method in brief: (§3)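 Scoring uses the grading scale of an earlier test, three weeks post-application. Treatment consists of spraying a diluted emulsion formulation across the surface of sterilized diluvial soil in which seeds are buried near 1.5 cm deep; boxes are kept in a greenhouse between 25° C. and 30° C.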

beet [2] = assay: Test Example 4: effect on crop by soil treatment (Table 19, symbol f); type: in vivo; settings: 320 g/ha
Excerpt: as §1, §2

southern crabgrass [3] = assay: Test Example 4: herbicidal effect by soil treatment (Table 19, symbol F); type: in vivo, southern crabgrass (Digitaria ciliaris); settings: 320 g/ha
Method in brief: as §3

southern crabgrass [4] = assay: Test Example 5: herbicidal effect by foliage application, plastic box (Table 20, symbol F); type: in vivo, southern crabgrass (Digitaria ciliaris); settings: foliage application, 320 g/ha, 3 weeks after application
Method in brief: (§4)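 Post-emergence foliar test in sterilized diluvial soil. Compound applied as water-diluted emulsion at a predetermined rate to 14-day-old plants; evaluation at three weeks.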

persian speedwell [5] = assay: Test Example 4: herbicidal effect by soil treatment (Table 19, symbol R); type: in vivo, Persian speedwell (Veronica persica); settings: 320 g/ha
Method in brief: as §3

persian speedwell [6] = assay: Test Example 5: herbicidal effect by foliage application, plastic box (Table 20, symbol R); type: in vivo, Persian speedwell (Veronica persica); settings: foliage application, 320 g/ha, 3 weeks after application
Method in brief: as §4

soybean [7] = assay: Test Example 4: effect on crop by soil treatment (Table 19, symbol d); type: in vivo; settings: 320 g/ha
Excerpt: as §1, §2

wheat [8] = assay: Test Example 5: effect on crop by foliage application, plastic box (Table 20, symbol e); type: in vivo; settings: 320 g/ha, 3 weeks after application
Excerpt: (§5) [Test Example 5] Herbicidal Effect Test by Foliage Application
as §2, with “Thereafter, the plants were grown in a greenhouse at 25° C. to 30° C. After 14-day growth of the plants,” for “Subsequently,”, “a foliage part” for “the surface of the soil”, “spray.” for “spray. The plastic box was placed in a greenhouse at 25° C. to 30° C. for growth of the plants.”

velvetleaf [9] = assay: Test Example 5: herbicidal effect by foliage application, plastic box (Table 20, symbol M); type: in vivo, velvetleaf (Abutilon theophrasti); settings: foliage application, 320 g/ha, 3 weeks after application
Method in brief: as §4

chickweed = assay: Test Example 4: herbicidal effect by soil treatment (Table 19, symbol P); type: in vivo, common chickweed (Stellaria media); settings: 320 g/ha
Method in brief: as §3

lambsquarters [10] = assay: Test Example 5: herbicidal effect by foliage application, plastic box (Table 20, symbol O); type: in vivo, lambsquarters (Chenopodium album); settings: foliage application, 320 g/ha, 3 weeks after application
Method in brief: as §4

blackgrass [11] = assay: Test Example 5: herbicidal effect by foliage application, plastic box (Table 20, symbol J); type: in vivo, blackgrass (Alopecurus myosuroides); settings: foliage application, 320 g/ha, 3 weeks after application
Method in brief: as §4

barnyard grass [12] = assay: Test Example 5: herbicidal effect by foliage application, plastic box (Table 20, symbol H); type: in vivo, barnyard grass (Echinochloa crus-galli); settings: foliage application, 320 g/ha, 3 weeks after application
Method in brief: as §4

corn [13] = assay: Test Example 5: effect on crop by foliage application, plastic box (Table 20, symbol c); type: in vivo; settings: 320 g/ha, 3 weeks after application
Excerpt: as §5
as §2, with “Thereafter, the plants were grown in a greenhouse at 25° C. to 30° C. After 14-day growth of the plants,” for “Subsequently,”, “a foliage part” for “the surface of the soil”, “spray.” for “spray. The plastic box was placed in a greenhouse at 25° C. to 30° C. for growth of the plants.”

wild oat [14] = assay: Test Example 4: herbicidal effect by soil treatment (Table 19, symbol I); type: in vivo, wild oat (Avena fatua); settings: 320 g/ha
Method in brief: as §3

barnyard grass [15] = assay: Test Example 4: herbicidal effect by soil treatment (Table 19, symbol H); type: in vivo, barnyard grass (Echinochloa crus-galli); settings: 320 g/ha
Method in brief: as §3

rice flat sedge = assay: Test Example 3: herbicidal effect by foliage application, Wagner pot (Table 18, symbol E); type: in vivo, rice flat sedge (Cyperus iria); settings: 320 g/ha
Method in brief: (§6)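 Plants were sown in alluvial soil held under 0.1–0.5 cm standing water and grown 14 days in a greenhouse at 25–30 °C. An emulsifiable formulation, water-diluted to the set dose, was then sprayed onto the foliage, and effects were scored three weeks later using previously defined criteria.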

Italian ryegrass [16] = assay: Test Example 5: herbicidal effect by foliage application, plastic box (Table 20, symbol K); type: in vivo, Italian ryegrass (Lolium multiflorum); settings: foliage application, 320 g/ha, 3 weeks after application
Method in brief: as §4

wheat [17] = assay: Test Example 4: effect on crop by soil treatment (Table 19, symbol e); type: in vivo; settings: 320 g/ha
Excerpt: as §1, §2

wild oat [18] = assay: Test Example 5: herbicidal effect by foliage application, plastic box (Table 20, symbol I); type: in vivo, wild oat (Avena fatua); settings: foliage application, 320 g/ha, 3 weeks after application
Method in brief: as §4

rapeseed [19] = assay: Test Example 5: effect on crop by foliage application, plastic box (Table 20, symbol g); type: in vivo; settings: 320 g/ha, 3 weeks after application
Excerpt: as §5
as §2, with “Thereafter, the plants were grown in a greenhouse at 25° C. to 30° C. After 14-day growth of the plants,” for “Subsequently,”, “a foliage part” for “the surface of the soil”, “spray.” for “spray. The plastic box was placed in a greenhouse at 25° C. to 30° C. for growth of the plants.”

windgrass [20] = assay: Test Example 5: herbicidal effect by foliage application, plastic box (Table 20, symbol L); type: in vivo, windgrass (Apera spica-venti); settings: foliage application, 320 g/ha, 3 weeks after application
Method in brief: as §4

Italian ryegrass [21] = assay: Test Example 4: herbicidal effect by soil treatment (Table 19, symbol K); type: in vivo, Italian ryegrass (Lolium multiflorum); settings: 320 g/ha
Method in brief: as §3

windgrass [22] = assay: Test Example 4: herbicidal effect by soil treatment (Table 19, symbol L); type: in vivo, windgrass (Apera spica-venti); settings: 320 g/ha
Method in brief: as §3

green foxtail [23] = assay: Test Example 5: herbicidal effect by foliage application, plastic box (Table 20, symbol G); type: in vivo, green foxtail (Setaria viridis); settings: foliage application, 320 g/ha, 3 weeks after application
Method in brief: as §4

directly sowed rice = assay: Test Example 3: effect on crop by foliage application, Wagner pot (Table 18, symbol b); type: in vivo; settings: 320 g/ha
Description: [Test Example 3] Herbicidal Effect Test by Foliage Application After alluvial soil was placed into 1/10000 are of Wagner pot, water was poured and mixed to form a submerged condition having a water depth of 0.1 cm to 0.5 cm. Seeds of barnyard grass, Chinese sprangletop, rice flat sedge, and rice were sowed and the pot was placed in a greenhouse at 25° C. to 30° C. for growth of the plants. After 14-day growth of the plants, the emulsion agent of the compound of the present invention prepared according to Formulation Example 2 was diluted with water so as to achieve a predetermined herbicide amount, and the diluted emulsion agent was uniformly applied to a foliage part with a small-sized spray. Three weeks after the herbicide application, the effect of the herbicide on each plant was evaluated according to the criteria of Test Example 1.

lambsquarters [24] = assay: Test Example 4: herbicidal effect by soil treatment (Table 19, symbol O); type: in vivo, lambsquarters (Chenopodium album); settings: 320 g/ha
Method in brief: as §3

barnyard grass [25] = assay: Test Example 3: herbicidal effect by foliage application, Wagner pot (Table 18, symbol H); type: in vivo, barnyard grass (Echinochloa crus-galli); settings: 320 g/ha
Method in brief: as §6

blackgrass [26] = assay: Test Example 4: herbicidal effect by soil treatment (Table 19, symbol J); type: in vivo, blackgrass (Alopecurus myosuroides); settings: 320 g/ha
Method in brief: as §3

velvetleaf [27] = assay: Test Example 4: herbicidal effect by soil treatment (Table 19, symbol M); type: in vivo, velvetleaf (Abutilon theophrasti); settings: 320 g/ha
Method in brief: as §3

Chinese sprangletop = assay: Test Example 3: herbicidal effect by foliage application, Wagner pot (Table 18, symbol D); type: in vivo, chinese sprangletop (Leptochloa chinensis); settings: 320 g/ha
Method in brief: as §6

corn [28] = assay: Test Example 4: effect on crop by soil treatment (Table 19, symbol c); type: in vivo; settings: 320 g/ha
Excerpt: as §1, §2

soybean [29] = assay: Test Example 5: effect on crop by foliage application, plastic box (Table 20, symbol d); type: in vivo; settings: 320 g/ha, 3 weeks after application
Excerpt: as §5
as §2, with “Thereafter, the plants were grown in a greenhouse at 25° C. to 30° C. After 14-day growth of the plants,” for “Subsequently,”, “a foliage part” for “the surface of the soil”, “spray.” for “spray. The plastic box was placed in a greenhouse at 25° C. to 30° C. for growth of the plants.”

beet [30] = assay: Test Example 5: effect on crop by foliage application, plastic box (Table 20, symbol f); type: in vivo; settings: 320 g/ha, 3 weeks after application
Excerpt: as §5
as §2, with “Thereafter, the plants were grown in a greenhouse at 25° C. to 30° C. After 14-day growth of the plants,” for “Subsequently,”, “a foliage part” for “the surface of the soil”, “spray.” for “spray. The plastic box was placed in a greenhouse at 25° C. to 30° C. for growth of the plants.”

green foxtail [31] = assay: Test Example 4: herbicidal effect by soil treatment (Table 19, symbol G); type: in vivo, green foxtail (Setaria viridis); settings: 320 g/ha
Method in brief: as §3

Which results are given for `Cc1nn(C)c(=O)c(-c2c(-c3ccc(OC(F)F)cc3)sc3ccc(F)cc23)c1O` [Compound No. 2-042, 4-(2-(4-(difluoromethoxy)phenyl)-5-fluorobenzo[b]thiophen-3-yl)-5-hydroxy-2,6-dimethylpyridazin-3(2H)-one]?
effect rating on crop, g: rapeseed (rapeseed [1]): 5 (Herbicidal rate of 90% or more (almost completely withered)); herbicidal effect rating, N: redroot pigweed (redroot pigweed): 5 (Herbicidal rate of 90% or more (almost completely withered)); effect rating on crop, f: beet (beet [2]): 1 (Herbicidal rate of 5% or more and less than 20%); melting point: 164 to 165 °C; herbicidal effect rating, F: southern crabgrass (southern crabgrass [3]): 3 (Herbicidal rate of 40% or more and less than 70%); effect on southern crabgrass (F) (southern crabgrass [4]): 4 (Herbicidal rate of 70% or more and less than 90%); herbicidal effect rating, R: persian speedwell (persian speedwell [5]): 5 (Herbicidal rate of 90% or more (almost completely withered)); effect on persian speedwell (R) (persian speedwell [6]): 5 (Herbicidal rate of 90% or more (almost completely withered)); effect rating on crop, d: soybean (soybean [7]): 0 (Herbicidal rate of 5% or less (almost no effect)); effect on wheat (e) (wheat [8]): 1 (Herbicidal rate of 5% or more and less than 20%); effect on velvetleaf (M) (velvetleaf [9]): 5 (Herbicidal rate of 90% or more (almost completely withered)); herbicidal effect rating, P: chickweed (chickweed): 4 (Herbicidal rate of 70% or more and less than 90%); effect on lambsquarters (O) (lambsquarters [10]): 5 (Herbicidal rate of 90% or more (almost completely withered)); effect on blackgrass (J) (blackgrass [11]): 5 (Herbicidal rate of 90% or more (almost completely withered)); effect on barnyard grass (H) (barnyard grass [12]): 5 (Herbicidal rate of 90% or more (almost completely withered)); effect on corn (c) (corn [13]): 0 (Herbicidal rate of 5% or less (almost no effect)); herbicidal effect rating, I: wild oat (wild oat [14]): 0 (Herbicidal rate of 5% or less (almost no effect)); herbicidal effect rating, H: barnyard grass (barnyard grass [15]): 4 (Herbicidal rate of 70% or more and less than 90%); herbicidal effect on E (rice flat sedge), rating 0-5 (rice flat sedge): 5 (Herbicidal rate of 90% or more (almost completely withered)); effect on Italian ryegrass (K) (Italian ryegrass [16]): 5 (Herbicidal rate of 90% or more (almost completely withered)); effect rating on crop, e: wheat (wheat [17]): 0 (Herbicidal rate of 5% or less (almost no effect)); effect on wild oat (I) (wild oat [18]): 3 (Herbicidal rate of 40% or more and less than 70%); effect on rapeseed (g) (rapeseed [19]): 5 (Herbicidal rate of 90% or more (almost completely withered)); effect on windgrass (L) (windgrass [20]): 5 (Herbicidal rate of 90% or more (almost completely withered)); herbicidal effect rating, K: Italian ryegrass (Italian ryegrass [21]): 5 (Herbicidal rate of 90% or more (almost completely withered)); herbicidal effect rating, L: windgrass (windgrass [22]): 3 (Herbicidal rate of 40% or more and less than 70%); effect on green foxtail (G) (green foxtail [23]): 5 (Herbicidal rate of 90% or more (almost completely withered)); effect on crop b (directly sowed rice), rating 0-5 (directly sowed rice): 1 (Herbicidal rate of 5% or more and less than 20%); herbicidal effect rating, O: lambsquarters (lambsquarters [24]): 5 (Herbicidal rate of 90% or more (almost completely withered)); herbicidal effect on H (barnyard grass), rating 0-5 (barnyard grass [25]): 5 (Herbicidal rate of 90% or more (almost completely withered)); herbicidal effect rating, J: blackgrass (blackgrass [26]): 3 (Herbicidal rate of 40% or more and less than 70%); herbicidal effect rating, M: velvetleaf (velvetleaf [27]): 5 (Herbicidal rate of 90% or more (almost completely withered)); herbicidal effect on D (Chinese sprangletop), rating 0-5 (Chinese sprangletop): 3 (Herbicidal rate of 40% or more and less than 70%); effect rating on crop, c: corn (corn [28]): 0 (Herbicidal rate of 5% or less (almost no effect)); effect on soybean (d) (soybean [29]): 3 (Herbicidal rate of 40% or more and less than 70%); effect on beet (f) (beet [30]): 5 (Herbicidal rate of 90% or more (almost completely withered)); herbicidal effect rating, G: green foxtail (green foxtail [31]): 5 (Herbicidal rate of 90% or more (almost completely withered))
